Consider six molecules from ChEMBL document CHEMBL6121057, “Discovery of an Orally Bioavailable STING Inhibitor with In Vivo Anti-Inflammatory Activity in Mice with STING-Mediated Inflammation” (J Med Chem, 2025).

A short description of series [1]: Metabolic stability in human liver microsomes assessed as half life. The series is classed as ADME, Microsome.
Series [2] in a line: Metabolic stability in human liver microsomes assessed as intrinsic clearance. The format is ADME, Microsome. As to conditions: read-out: CLH.
A short description of series [3]: Oral bioavailability in Sprague-Dawley rat at 10 mg/kg measured […] by LC-MS/MS analysis. The series is classed as ADME, organism-based. As to conditions: in vivo.
Series [4] can be described thus: Cmax in Sprague-Dawley rat at 2 mg/kg, iv measured […] by LC-MS/MS analysis. The series is classed as ADME, organism-based. As to conditions: in vivo.
Series [5] in a line: Tmax in Sprague-Dawley rat at 2 mg/kg, iv measured […] by LC-MS/MS analysis. The format is ADME, organism-based. As to conditions: in vivo.
Series [6] is described as follows: AUC (0 to t) in Sprague-Dawley rat at 10 mg/kg, po measured upto 60 mins by LC-MS/MS analysis. The format is ADME, organism-based. Particulars: in vivo.
A short description of series [7]: Half life in Sprague-Dawley rat at 2 mg/kg, iv measured upto 60 mins by LC-MS/MS analysis. The format is ADME, organism-based. As to conditions: in vivo.
Series [8] in a line: AUC (0 to t) in Sprague-Dawley rat at 2 mg/kg, iv measured upto 60 mins by LC-MS/MS analysis. Particulars: in vivo. The series is classed as ADME, organism-based.
Series [9] in a line: Tmax in Sprague-Dawley rat at 10 mg/kg, po measured […] by LC-MS/MS analysis. The series is classed as ADME, organism-based. Particulars: in vivo.
Series [10] in a line: Cmax in Sprague-Dawley rat at 10 mg/kg, po measured […] by LC-MS/MS analysis. The series is classed as ADME, organism-based. Particulars: in vivo.

Regarding `CC(C)(C)c1ccc(NC(=O)Nc2c[nH]c3ccc(F)cc23)cc1`, the half-life in series [1] was determined as 16.3 min. Moreover, the CLint scaled in series [2] came to 76.3 mL/min/kg.

On to `O=C(Nc1ccc(C2CCC(F)(F)CC2)cc1)Nc1c[nH]c2ccc(F)cc12`, for which, in series [1], the half-life is 41 min. The CLint scaled in series [2] came out at 21.7 mL/min/kg.

For the molecule `O=C(Nc1ccc(C(F)(F)F)cc1)Nc1c[nH]c2ccc(Cl)cc12`, the bioavailability in series [3] is 4.6%. For the same molecule, the figures for the half-life in [1] and in series [7] were 139 min and 48 min, respectively. Besides, the results for the Cmax in series [4] and in [10] were 842 ng/mL and 37 ng/mL, respectively. Moreover, the Tmax in [5] turned out to be 6 min; in series [9] it was 252 min. Also, the AUC(0-t) at 1 h in series [6] is 125 ng·h/mL; in series [8] it was 536 ng·h/mL. Further, in [2], the CLint scaled came to 6.4 mL/min/kg.

`CCc1ccc(NC(=O)Nc2c[nH]c3ccccc23)cc1` returned a bioavailability in [3] of 0.6%. Further, the half-life in series [1] is 6.2 min; in [7], 12 min. Moreover, the Cmax is 1320 ng/mL in series [4] and 8 ng/mL in series [10]. The values for the Tmax in [5] and in [9] were 6 min and 48 min, respectively. For the same molecule, the values for the AUC(0-t) at 1 h in series [6] and in [8] were 12 ng·h/mL and 387 ng·h/mL, respectively. The CLint scaled in series [2] worked out at 143 mL/min/kg.

For `CCc1ccc(NC(=O)Nc2c[nH]c3ccc(F)cc23)cc1`, the half-life in series [1] is 16.9 min. For the same molecule, the CLint scaled in series [2] was determined as 53 mL/min/kg.

As to `O=C(Nc1ccc(C(F)(F)F)cc1)Nc1c[nH]c2ccc(F)cc12`, in [1], the half-life was found to be 30.4 min. The CLint scaled in [2] is 41 mL/min/kg.
